# “Also recorded” adds a separate entry of the source. Where no end group is shown, it is not given here.
# Experiments:
# [1] = system: diet-induced obese mice; test: Continuous osmopump infusion in very high-fat diet-induced obese mice: body weight, energy intake, Feed Efficiency; format: in vivo, mouse
# Procedure: The data encompass twelve weeks, from week 2 to week 14 of continuous infusions of control vehicle and GLP-1(32-36)amide. GLP-1(32-36)amide was administered to mice via mini-osmopumps (Alzet #1004) at a rate of 40 nanomoles/Kg body weight/24 hours. Male C57bl/6j mice were placed on a high fat diet (Research Diets, #D12492, 60 kcal % fat) at six weeks of age and continued for 17 weeks before starting osmopump infusions at age 23 weeks. 1A. Line graph showing time-dependent changes in body weight (BW) over fourteen weeks of infusions of control vehicle and pentapeptide GLP-1(32-36)amide. (*) p<0.05 versus vehicle control; (**) p<0.04 versus vehicle control; (***) p<0.034; (#) p<0.01; (##) p<0.004; (###) p<0.0006, 0.0007; (####) p<0.0001. 1B. N=six mice per group. Values are means+/−SEMs. *p<0.013 peptide vs. vehicle. At week two of infusions of vehicle and pentapeptide the mice weighed 37.2 and 38.2 gms (averages of six mice), respectively. N=six mice per group.
# FIG. 3 is a bar graph showing feed efficiency at the end of 12 week infusion. GLP-1(32-36)amide infusions in diet-induced obese mice lowers the Feed Efficiency index. The data are the means+/−SEMs (*p<0.06 pentapeptide vs. vehicle) of the values calculated from the […] period of infusions of control vehicle and GLP-1(32-36)amide shown in FIG. 4. The Feed efficiency (FE) is a calculation of the body weight (gms) divided by the energy intake kcal) in the food consumed. […] Basal energy expenditure in mice treated with pentapeptide is increased compared to mice treated with control vehicle. N=6 mice per group.
# Male C57bl/6 mice at […] were placed on a very high-fat diet (VHFD, 60% fat, Research Diets) for 17 weeks. At week 17 the mice on the high-fat diet, corresponding to 23 weeks of age, mini-osmopumps containing either vehicle or GLP-1(32-36)amide were implanted subcutaneously for delivery of peptide or vehicle over 16 weeks. Forty nanomoles (20 micrograms) of GLP-1(32-36) was diluted in saline containing 0.1% human serum albumin and were infused at a rate of forty nanomoles/kgBW/day for 16 weeks to achieve an estimated concentration of approximately 100 pM similar to that reported by infusions of GLP-1(7-36)amide. For infusions longer than 4 weeks additional osmopumps with peptide were implanted at the end of each 4 weeks infusion. Body weights were recorded weekly. Food consumption was assessed every 3 to 4 days by weight. Energy intake (kcal/gm BW/week) and Feed Efficiency Index (FEI) were evaluated during the infusions of vehicle or peptide. The latter provides a measure of the efficiency of caloric conversion to body weight and it is calculated by determining the grams of body weight gain per cage/Kcal of food consumed per cage, [21]. There was no observable change in the activities of the mice amongst the various experimental groups. Mouse care was conducted under approval by the MGH Institutional Animal Care Use Committee.
# [2] = system: insulin-resistant isolated mouse hepatocytes; test: Glucose production assay in isolated hepatocytes; format: cell-based; details: stimulated by cAMP/dexamethasone/lactate; basal glucose production not suppressed
# Description: FIG. 8 is a bar graph showing suppression of glucose production by the pentapeptide GLP-1(32-36)amide (LVKGRamide (SEQ ID NO:1)) in insulin-resistant hepatocytes. Mice (male, C57bl/6) from 12-19 weeks of age were fasted overnight (16 hrs) and primary hepatocytes were isolated using a collagen and perfusion gradient purification. Cells were first seeded using a Dulbecco's modified Eagle's medium (DMEM) supplemented with 10% FBS, 1 g/L glucose, 2 mmol/1 sodium pyruvate, 1 micromol/L dexamethasone, and 0.1 micromol/L insulin, and later maintained in DMEM with 0.2% BSA, 1 g/L glucose, 0.1 micromol/L dexamethasone, and lnmol/L insulin. […] The readings were then normalized to total protein content determined from whole-cell lysates. […]
# Primary hepatocytes (2×10^5 cells per well in twelve-well plates) were pre-treated with GLP-1(32-36)amide for 1 hour followed by the stimulation of insulin resistance by the addition of cAMP (10 microM)/dexamethasone ([…])/sodium lactate (2 mM) in glucose-free DMEM without phenol red. […] The readings were then normalized to total protein content determined from whole-cell lysates.
substance,measurement,setting,value
"LVKGRamide (LVKGR-NH2) [GLP-1(32-36)amide, pentapeptide derived from the C-terminus of the glucoincretin hormone GLP-1]","average weekly change in body weight gain, less than control vehicle","[1]; VHFD mice, 40 nanomoles/kg BW/day s.c. osmopump, measured over ten weeks (FIG. 1B)",50%
same,body weight at week two of infusions,"[1]; VHFD mice, average of six mice, vehicle 37.2",38.2 gms
same,time at which inhibition of weight gain reached statistical significance,"[1]; VHFD mice, continuous infusion 40 nanomoles/kg BW/day (FIG. 1A)",by week five; also recorded: as early as five weeks
same,energy intake (food intake),"[1]; VHFD mice, ten weeks of infusion, vehicle 1.11±0.025",1.15±0.030 Kcal/g body weight/week
same,Feed Efficiency decrease compared to vehicle,[1]; VHFD obese mice (FIG. 3),approximately 50%
same,Feed Efficiency index (effect in words),"[1]; end of 12 week infusion, p<0.06 vs vehicle (FIG. 3)",lowers
same,body weights decreased compared to vehicle control,"[1]; end of the sixteen week infusion, high fat diet-induced obese mice",50%
same,glucose production (formation),[2],suppression
